Data set [1] concerns S. pneumoniae isolates. In kind it is cell-based. Particulars: Streptococcus pneumoniae.
The format of data set [2] is physicochemical. Conditions: pH 7.
The subject of data set [3] is S. pneumoniae strain D39x. Put plainly: Mouse intranasal pneumococcal challenge, pneumonia and bacteremia. The format is in vivo, mice.
The test system of data set [4] is MRSA, Staphylococcus aureus (NRS70). In words: microbe, parasite or virus in culture. The format is cell-based. Particulars: MRSA|NRS70, read-out: MIC MRSA.
The subject of data set [5] is Listeria monocytogenes (NS512). Put plainly: microbe, parasite or virus in culture. In kind it is cell-based.
Data set [6] relates to Neisseria meningitidis (ATCC 13077). Put plainly: microbe, parasite or virus in culture. The format is cell-based. Conditions: ATCC13077, read-out: Zone of inhibition Nm.
Data set [7] relates to Enterococcus faecalis (ATCC 33186). In words: microbe, parasite or virus in culture. The format is cell-based. Particulars: ATCC33186, read-out: MIC Ef.
In data set [8] the test system is Haemophilus influenzae (ATCC 49247). In words: microbe, parasite or virus in culture. The format is cell-based. Particulars: ATCC49247, read-out: Zone of inhibition Hi.
The subject of data set [9] is Bacillus subtilis (ATCC 23857). Put plainly: microbe, parasite or virus in culture. The format is cell-based. Particulars: ATCC23857, read-out: MIC Bs.
Data set [10] relates to Legionella pneumophila (ATCC 33153). In words: microbe, parasite or virus in culture. In kind it is cell-based.
Data set [11] concerns Streptococcus pyogenes (ATCC 700294). Put plainly: microbe, parasite or virus in culture. The format is cell-based. Conditions: ATCC700294, read-out: MIC Spy.
The conditions of data set [12]: rat, in vivo, 10 mg/kg; cited from earlier work.
Data set [13] concerns Streptococcus pneumoniae (R6). Put plainly: microbe, parasite or virus in culture. In kind it is cell-based. Conditions: read-out: MIC Spn.
Data set [14] deals with S. pneumoniae strain TIGR4. Put plainly: Mouse intranasal pneumococcal challenge, bacteremia and meningitis. In kind it is in vivo, mice. Particulars: 5 mg/kg from 18 hours after intranasal challenge.
Data set [15] deals with Neisseria gonorrhoeae (ATCC 49226). The format is cell-based. Particulars: 40 μg of compound on 6 mm disc; range of two experiments.
In data set [16] the test system is Moraxella catarrhalis (ATCC 25238). Put plainly: microbe, parasite or virus in culture. In kind it is cell-based. Particulars: ATCC25238, read-out: MIC Moraxella catarrhalis.
Data set [17] relates to Streptococcus pneumoniae mutants resistant to compound 1. Put plainly: In vitro generation and MIC testing of compound 1 resistant mutants. The format is cell-based. Conditions: fifteen compound 1 resistant S. pneumoniae clones (RpsE G27R).
The test system of data set [18] is MSSA, Staphylococcus aureus (ATCC 29213). Put plainly: microbe, parasite or virus in culture. Conditions: ATCC29213|MSSA, read-out: MIC MSSA. The format is cell-based.
For data set [19] the following is noted: mean (% CV); cited from earlier work.
For data set [20], the system named is Chlamydia trachomatis serovar L2 (strain 434/Bu). In words: Chlamydial susceptibility testing in infected HeLa 229 monolayers. Particulars: up to 100 μg/mL, C. trachomatis-infected monolayers.
Setting [21] is: ATCC700904, read-out: MIC ATCC700904.

One may read the zone of inhibition as the size of the clear area around the sample on an inoculated plate.

≈ marks a conversion by molar mass, not a printed value. Read-outs that look alike come from different tables or passages of the source.

As to `CC[C@H]1OC(=O)[C@H](C)[C@@H](O[C@H]2C[C@@](C)(OC)[C@@H](O)[C@H](C)O2)[C@H](C)[C@@H](O[C@@H]2O[C@H](C)C[C@H](N(C)C)[C@H]2O)[C@](C)(O)C[C@@H](C)C(=O)[C@H](C)[C@@H](O)[C@]1(C)O` [Erythromycin], the MIC in data set [1] (setting [21]) was 2 µg/mL (≈ 2.73 µM); in data set [1] (read-out: MIC 8249), more than 2 µg/mL; in data set [1] (read-out: MIC BAA-1407) it was 50 µg/mL (≈ 68.1 µM); in data set [1] (read-out: MIC Daw7), not above 0.2 µg/mL; in data set [1] (read-out: MIC Daw8), not above 0.2 µg/mL; in data set [1] (read-out: MIC Daw9) it was 2 µg/mL (≈ 2.73 µM). Also, the MIC in data set [1] (read-out: MIC Daw19) was 1 µg/mL (≈ 1.36 µM); in data set [1] (read-out: MIC Daw26), 0.1 µg/mL (≈ 0.136 µM); in data set [1] (read-out: MIC Daw27), 1 µg/mL (≈ 1.36 µM); in [1] (read-out: MIC Daw47) it was 0.03 µg/mL (≈ 0.0409 µM); in data set [1] (read-out: MIC Daw62) it was not above 0.2 µg/mL; in data set [1] (read-out: MIC Daw64), not above 0.2 µg/mL. The figures for the MIC in data set [1] (read-out: MIC OVA2) and in data set [1] (read-out: MIC R6) were 1 µg/mL (≈ 1.36 µM) and not above 0.2 µg/mL, respectively.

In the case of `CC1(C)S[C@@H]2[C@H](NC(=O)Cc3ccccc3)C(=O)N2[C@H]1C(=O)O` [Penicillin G], the MIC in data set [1] (setting [21]) is more than 2 µg/mL; in data set [1] (read-out: MIC 8249), more than 2 µg/mL; in data set [1] (read-out: MIC A66.1x) it was not above 0.2 µg/mL; in data set [1] (read-out: MIC BAA-1407) it was 2 µg/mL (≈ 5.98 µM); in [1] (read-out: MIC BHN97x), not above 0.2 µg/mL; in data set [1] (read-out: MIC D39X) it was not above 0.2 µg/mL. Also, the MIC in [1] (read-out: MIC Daw7) stood at 3 µg/mL (≈ 8.97 µM); in data set [1] (read-out: MIC Daw8), 3 µg/mL (≈ 8.97 µM); in data set [1] (read-out: MIC Daw9) it was 2 µg/mL (≈ 5.98 µM); in data set [1] (read-out: MIC Daw19) it was 3 µg/mL (≈ 8.97 µM); in [1] (read-out: MIC Daw26), 3 µg/mL (≈ 8.97 µM); in data set [1] (read-out: MIC Daw27) it was 3 µg/mL (≈ 8.97 µM). The MIC was 3 µg/mL (≈ 8.97 µM) in [1] (read-out: MIC Daw47); 3 µg/mL (≈ 8.97 µM) in data set [1] (read-out: MIC Daw62); 2 µg/mL (≈ 5.98 µM) in data set [1] (read-out: MIC Daw64); not above 0.2 µg/mL in data set [1] (read-out: MIC OVA2); not above 0.2 µg/mL in data set [1] (read-out: MIC R6); not above 0.2 µg/mL in data set [1] (read-out: MIC T4X).

Regarding `CN[C@@H]1[C@H](O)[C@H](NC)[C@H]2O[C@@]3(O)C(=O)C[C@@H](C)O[C@H]3O[C@@H]2[C@H]1O` [Spectinomycin, spectinomycin], the “Chemical stability (percent of parent over time)” value in data set [2] is reported as “continuously declined over time”. Further, the “Survival of infected mice” value in data set [3] (5 mg/kg BID subcutaneous from 18 hours post challenge, D39x, n=5) is recorded as “died or were humanely euthanized by 120 hours post challenge”; in data set [14] it was “did not survive beyond 96 hours”. Besides, the “Bioluminescent imaging of infection” value in [3] (72 hours post challenge, 5 mg/kg BID) is on record as “systemic bacterial infection”. The MIC is more than 200 µg/mL in data set [4]; 50 µg/mL (≈ 150 µM) in [5] (Listeria monocytogenes, read-out: MIC Lm); 100 µg/mL (≈ 301 µM) in data set [7]; 12.5 µg/mL (≈ 37.6 µM) in data set [9]; 25 µg/mL (≈ 75.2 µM) in data set [11]; 12.5 µg/mL (≈ 37.6 µM) in [13]. For the same molecule, the MIC came out at 6 µg/mL (≈ 18.1 µM) in [16]; 100 µg/mL (≈ 301 µM) in [18]; 25 µg/mL (≈ 75.2 µM) in [1] (setting [21]); 25 µg/mL (≈ 75.2 µM) in [1] (read-out: MIC 8249); 6 µg/mL (≈ 18.1 µM) in [1] (read-out: MIC A66.1x); 13 µg/mL (≈ 39.1 µM) in data set [1] (read-out: MIC BAA-1407). The MIC was found to be 6 µg/mL (≈ 18.1 µM) in [1] (read-out: MIC BHN97x); 13 µg/mL (≈ 39.1 µM) in [1] (read-out: MIC D39X); 25 µg/mL (≈ 75.2 µM) in [1] (read-out: MIC Daw7); 25 µg/mL (≈ 75.2 µM) in data set [1] (read-out: MIC Daw8); 13 µg/mL (≈ 39.1 µM) in data set [1] (read-out: MIC Daw9); 25 µg/mL (≈ 75.2 µM) in [1] (read-out: MIC Daw19). Besides, the MIC is 50 µg/mL (≈ 150 µM) in data set [1] (read-out: MIC Daw26); 25 µg/mL (≈ 75.2 µM) in [1] (read-out: MIC Daw27); 25 µg/mL (≈ 75.2 µM) in [1] (read-out: MIC Daw47); 25 µg/mL (≈ 75.2 µM) in data set [1] (read-out: MIC Daw62); 25 µg/mL (≈ 75.2 µM) in data set [1] (read-out: MIC Daw64); 13 µg/mL (≈ 39.1 µM) in data set [1] (read-out: MIC OVA2). Moreover, the MIC in data set [1] (read-out: MIC R6) and in [1] (read-out: MIC T4X) was 13 µg/mL (≈ 39.1 µM) in each case. In data set [5] (NS512, range of two independent experiments), the “MIC Lm” value was determined as 50 µg/mL (≈ 150 µM). The zone of inhibition at 40 µg/disc in data set [6] is 13 to 15 mm; in [8], 12 mm; in data set [10] (Legionella pneumophila, ATCC33153, 48 h, read-out: Zone of inhibition Lp), 0 mm. For the same molecule, the “Zone of inhibition Lp” value in [10] (40 μg of compound on 6 mm disc, 48 hours, range of two experiments) was “completely inactive”. The “IV Pharmacokinetics CL” value in [12] was 0.60 (11.5) L/hr/Kg. The “IV Pharmacokinetics T1/2” value in [12] is given as 0.75 (49.3) hr. Also, in data set [12], the “IV Pharmacokinetics Vd” value is listed as 0.76 (45.2) L/Kg. Further, the “IV Pharmacokinetics fe (fraction excreted unchanged in urine)” value in data set [12] is given as 0.55 (27.0). Moreover, in data set [15], the “Zone of inhibition Ng” value was 10–11.5 mm. For the same molecule, in data set [17], the “MIC against resistant clones” value is given as “weakly susceptible”. In addition, the “Microsomal Stability t1/2” value in data set [19] was 6.43 (0.13) hr. For the same molecule, in data set [20], the “Reduction of intracellular inclusions” value is given as “failed to reduce intracellular inclusions”.

For `CO/N=C(\C(=O)N[C@@H]1C(=O)N2C(C(=O)O)=C(COC(C)=O)CS[C@H]12)c1csc(N)n1` [Cefotaxime], the MIC amounted to 0.2 µg/mL (≈ 0.439 µM) in data set [1] (setting [21]); 3 µg/mL (≈ 6.59 µM) in data set [1] (read-out: MIC 8249); 1 µg/mL (≈ 2.2 µM) in [1] (read-out: MIC Daw19); 3 µg/mL (≈ 6.59 µM) in data set [1] (read-out: MIC Daw26); 3 µg/mL (≈ 6.59 µM) in [1] (read-out: MIC Daw47).

With `[H]/N=C(/N)N[C@H]1[C@H](O)[C@@H](O)[C@H](O[C@@H]2O[C@@H](C)[C@](O)(C=O)[C@H]2O[C@@H]2O[C@@H](CO)[C@H](O)[C@@H](O)[C@@H]2NC)[C@@H](N/C(N)=N\[H])[C@@H]1O` [Streptomycin], the MIC in data set [1] (setting [21]) was more than 200 µg/mL; in data set [1] (read-out: MIC 8249), more than 200 µg/mL; in data set [1] (read-out: MIC A66.1x) it was 13 µg/mL (≈ 22.4 µM); in data set [1] (read-out: MIC BAA-1407) it was 50 µg/mL (≈ 86 µM); in [1] (read-out: MIC BHN97x), 13 µg/mL (≈ 22.4 µM); in data set [1] (read-out: MIC D39X) it was 13 µg/mL (≈ 22.4 µM). For the same molecule, the MIC in data set [1] (read-out: MIC Daw7) was 25 µg/mL (≈ 43 µM); in data set [1] (read-out: MIC Daw8) it was 25 µg/mL (≈ 43 µM); in data set [1] (read-out: MIC Daw9) it was more than 200 µg/mL; in data set [1] (read-out: MIC Daw62), 25 µg/mL (≈ 43 µM); in [1] (read-out: MIC Daw64) it was 25 µg/mL (≈ 43 µM); in data set [1] (read-out: MIC OVA2) it was 13 µg/mL (≈ 22.4 µM). The MIC in [1] (read-out: MIC R6) came to 13 µg/mL (≈ 22.4 µM); in data set [1] (read-out: MIC T4X), 6 µg/mL (≈ 10.3 µM).

`CC1(C)S[C@@H]2[C@H](NC(=O)[C@H](N)c3ccccc3)C(=O)N2[C@H]1C(=O)O` [ampicillin]: in data set [3] (matched doses 2.5 or 5 mg/kg), the “Survival of infected mice, 9 day experiment” value is “all survived”. The “Reduction of bacterial titers” value in data set [3] (within 48 hours post infection, 2.5 or 5 mg/kg) is on record as “more than 3 logs”.

(Values after PMC4641453 (Science translational medicine, 2015).)
